Test results reported in patent US4386103A, “Dichloroamino acid derivatives useful as potent germicidal and fungicidal agents” (Merck & Co., Inc., priority 1981, dated 1983).

What was measured:
[1] = tested on: Staphylococcus epidermidis; assay: Contact germicidal screen, Staphylococcus epidermidis ATCC No. 12228; assay type: cell-based
Protocol: The organisms used in the contact germicidal screen are all maintained as stock cultures on nutrient agar […] 4° C. They are transferred and biochemically diagnosed monthly. The five organisms used are: The media used are: […] Overnight cultures of the test organisms are grown in tryptose phosphate broth. After 15-16 hours, the cultures are centrifuged at […] for 15 minutes, and the supernatant replaced with fresh warm (37° C.) media. After two hours of incubation, the absorbance of the culture at 650 nm is determined and diluted with nutrient broth to 1×10^7 colony forming units per ml (using a previous determined standard curve: colony forming units/ml vs. absorbance at 650). The diluted cultures are maintained at 4°-8° C. throughout the screen. The compounds are weighed into sterile 100 ml volumetric flasks, and immediately before screening dissolved in one of the following buffers: 0.1 M NaOAc pH 4.6 or 0.1 M NaH2 PO4 pH 7.0. If solubility poses a problem, 10-30% methanol is used to effect solution. Two denaturing agents are also tested: […] Horse Serum restored with 100 ml distilled water and 10% Trition×100. When used, 2.5 ml of the denaturing agent is mixed with 2.5 ml of double strength test solution thirty minutes before the bacterial suspension is added. The screen is initiated when 0.2 ml of the bacterial suspension is added to 5.0 ml of the test solution contained in a sterile 25 ml glass stoppered flask. At intervals of 0.5, 2.5, 5.0, 10.0 and 15.0 minutes, a loopful of the inoculated test solution is subcultured into 5 ml of sterile nutrient broth and mixed with a vortex, the high dilution serving to stop the action of the compound. All of the subculture tubes are incubated at 37° C. and checked for signs of growth by turbidity at 1, 3, 5 and 7 days. The earliest subculture time at which no growth is present is considered the endpoint and is recorded as the sterilization time. An aliquot of 0.2 ml of the diluted culture is transferred to 5 ml of buffer to simulate 0.2 ml in 5 ml of test solution. (a) Purity: A loopful of the inoculated buffer is streaked onto nutrient agar to check colony morphology and lack of contaminants. (b) Viability: A loopful of the inoculated buffer is subcultured to 5 ml of nutrient broth as in the screen and incubated at 37° C. for 24 hours. (c) Dilution of the Test Solution: A loopful of the test solution is transferred to a 5 ml tube of nutrient broth, and a loopful of the inoculated buffer is transferred to the same tube of broth. […] (d) Purity of Organisms in the Test Solution: After the 15 minute subculture, a loopful of the inoculated test solution is streaked onto nutrient agar to insure that contamination has not occurred during the screen. (e) lack of Bactericidal Activity of Buffers and Other Solvents: Before a buffer or other solvent is used as a diluent, it is screened against the five organisms to insure that the buffer or solvent has no antibacterial activity itself.

Candida albican = assay: Contact fungicidal screen, Candida albican; assay type: cell-based; conditions: 0.1M NaOAc pH 4.6
Protocol: The organisms used in the Contact Fungicidal Screen are a dermatophyte, trychophyton mentagrophytes, frequently associated with athlete's foot; a yeast, Candida albican, causative agent of thrush and vaginitis; a phycomycete, Rhizopus oryzae, commonly known as black bread mold; an ascomycete, Aspergillus fumagatis, found in chicken droppings and causing lung infections; and another dermatophyte, Microsporum canis, which causes ringworm. These organisms are maintained as stock cultures at 4° C. on agar slants of the following composition: dextrose 2%, Neopeptone (Difco) 1%, agar 2%. Fluid medium of the same nutrient composition (without agar) was used to test the viability of the organisms after exposure to the fungicide. This medium is also known as Sabouraud's medium.
The Candida albican is grown in Sabouraud's liquid medium at 25°-30° C. for three days. At the end of the incubation period the cell suspension is centrifuged at 200 G and washed with sterile physiological saline (0.85% NaCl). The density of the cell suspension is determined by counting in a hemacytometer. The suspension is stored a 4° C. until it is used, at which time it is diluted with sterile physiological saline to a density of 5×10^6 cells per ml.
The compounds are weighed into heat sterilized 100 ml volumetric flasks and immediately before screening dissolved in 0.1 M NaOAc pH 4.6 buffer (test solutions).
The Aspergillus, Candida, Microsporum and Rhizopus species are screened in a slightly different manner. Basically, the procedure for the Contact Germicidal Efficiency Screen is utilized. After the test solutions are made up, 5 ml aliquots are pipetted into heat sterilized 25 ml glass stoppered erlenmeyer flasks. The screen is initiated when 0.5 ml of the 5×10^6 cell (spore) per ml suspension is added to the flask containing 5 ml of the test solution. At intervals of 0.5, 2.5, 5.0, 10.0 and 15.0 minutes, a 4 mm loopful of the inoculated test solution is subcultured into 7 mL of sterile fluid Sabouraud's medium and mixed on a vortex, the high dilution serving to stop the action of the compound. The subculture tubes are incubated at 25°-30° C. for ten days with daily observation for mycelial growth. The earliest subculture time at which no growth is present is considered the endpoint and is recorded as the sterilization time.
To insure the viability of the culture, a 0.5 ml aliquot of the 5×10^6 cells (spores) per ml suspension is transferred to 5 ml of the pH 4.6 buffer. A loopful of the inoculated buffer is then subcultured to 7 ml of fluid Sabouraud's medium and incubated at 25°-30° C. for ten days. To insure that the dilution of the test solution into the subculture medium does stop the action, a loopful of the test solution and a loopful of the inoculated buffer are transferred into the same subculture tube. This tube is also incubated at 25°-30° C. for ten days.

[2] = 10.0+ PPM, 0.1M NaOAc pH 4.6, screened simultaneously with four other compounds
[3] = 300 PPM with 50% Horse Serum, 0.1M NaOAc pH 4.6
[4] = 300 PPM with 50% Triton X100, 0.1M NaOAc pH 4.6
[5] = 1000 PPM with 50% Horse Serum, 0.1M NaOAc pH 4.6
[6] = 308.0 PPM, Triton X100 (10% solution):pH 4.6 buffer 1:1

CC(C)(COC(=O)CCCC(=O)O)N(Cl)Cl [(V), 2-dichloramino-2-methylpropyl-hemiglutarate]
Sterilization Time [1, 2]: 10.0 min
Sterilization Time ([1]; 10.0 PPM, 0.1M NaH2PO4 pH 7.0): 15 min
Sterilization Time (summary) ([1]; 10 PPM, 0.1M NaOAc pH 4.6): 10.0 min
Sterilization Time ([1]; 10.0 PPM, 0.1M NaOAc pH 4.6): 10.0 min
Sterilization Time ([1]; 99.1 PPM, 0.1M NaOAc pH 4.6): 2.5 min
Sterilization Time (summary) ([1]; 100 PPM, 0.1M NaOAc pH 4.6): 2.5 min
Sterilization Time ([1]; 106.7 PPM, 0.1M NaH2PO4 pH 7.0): 15 min
Sterilization Time ([1]; 291.4 PPM, Triton X100 (10% solution):pH 4.6 buffer 1:1): 2.5 min
Sterilization Time ([1]; 291.4 PPM, horse serum:pH 4.6 buffer 1:1): 15 min
Sterilization Time (summary) [1, 3]: 15 min
Sterilization Time (summary) [1, 4]: 2.5 min
Sterilization Time ([1]; 911.8 PPM, 0.1M NaOAc pH 4.6): 0.5 min
Sterilization Time (summary) [1, 5]: 2.5 min
Sterilization Time (summary) ([1]; 1000 PPM, 0.1M NaOAc pH 4.6): 0.5 min
Sterilization Time ([1]; 1024.4 PPM, 0.1M NaH2PO4 pH 7.0): 10.0 min
Sterilization Time ([1]; 1042.0 PPM, horse serum:pH 4.6 buffer 1:1): 2.5 min
Sterilization Time (Candida albican; 10 PPM): 15 min
Sterilization Time (Candida albican; 100 PPM): 15 min
Sterilization Time (Candida albican; 1000 PPM): 0.5 min

CC(C)(COC(=O)CCC(=O)O)N(Cl)Cl [(IV), 2-Dichloroamino-2-methylpropylhemisuccinate]
Sterilization Time ([1]; 8.6 PPM, 0.1M NaOAc pH 4.6): 15.0 min
Sterilization Time ([1]; 9.8 PPM, 0.1M NaH2PO4 pH 7.0): 15 min
Sterilization Time [1, 2]: 10.0 min
Sterilization Time (summary) ([1]; 10 PPM, 0.1M NaOAc pH 4.6): 10.0 min
Sterilization Time (summary) ([1]; 100 PPM, 0.1M NaOAc pH 4.6): 2.5 min
Sterilization Time ([1]; 106.2 PPM, 0.1M NaOAc pH 4.6): 2.5 min
Sterilization Time ([1]; 149.7 PPM, 0.1M NaH2PO4 pH 7.0): 15 min
Sterilization Time (summary) [1, 3]: 15 min
Sterilization Time (summary) [1, 4]: 2.5 min
Sterilization Time [1, 6]: 2.5 min
Sterilization Time ([1]; 338.7 PPM, horse serum:pH 4.6 buffer 1:1): 15 min
Sterilization Time (summary) [1, 5]: 2.5 min
Sterilization Time (summary) ([1]; 1000 PPM, 0.1M NaOAc pH 4.6): 0.5 min
Sterilization Time ([1]; 1008.0 PPM, 0.1M NaOAc pH 4.6): 0.5 min
Sterilization Time ([1]; 1024.0 PPM, horse serum:pH 4.6 buffer 1:1): 2.5 min
Sterilization Time ([1]; 1070.3 PPM, 0.1M NaH2PO4 pH 7.0): 10.0 min
Sterilization Time (Candida albican; 10 PPM): 15 min
Sterilization Time (Candida albican; 100 PPM): 15 min
Sterilization Time (Candida albican; 1000 PPM): 2.5 min

CC(C)(CC(=O)O)N(Cl)Cl [(II)]
Sterilization Time ([1]; 1.8 PPM, 0.1M NaOAc pH 4.6): 15 min
Sterilization Time ([1]; 4.5 PPM, 0.1M NaOAc pH 4.6): 10.0 min
Sterilization Time [1, 2]: 2.5 min
Sterilization Time (summary) ([1]; 10 PPM, 0.1M NaOAc pH 4.6): 2.5 min
Sterilization Time ([1]; 10.0 PPM, 0.1M NaOAc pH 4.6): 5.0 min
Sterilization Time ([1]; 12.2 PPM, 0.1M NaOAc pH 4.6): 2.5 min
Sterilization Time ([1]; 32.1 PPM, 0.1M NaOAc pH 4.6): 2.5 min
Sterilization Time ([1]; 51.0 PPM, Triton X100 (10% solution):pH 4.6 buffer 1:1): 2.5 min
Sterilization Time ([1]; 51.0 PPM, horse serum:pH 4.6 buffer 1:1): 15 min
Sterilization Time ([1]; 71.7 PPM, 0.1M NaOAc pH 4.6): 0.5 min
Sterilization Time (summary) ([1]; 100 PPM, 0.1M NaOAc pH 4.6): 0.5 min
Sterilization Time ([1]; 104.7 PPM, 0.1M NaOAc pH 4.6): 0.5 min
Sterilization Time ([1]; 107.8 PPM, 0.1M NaH2PO4 pH 7.0): 15.0 min
Sterilization Time ([1]; 298.9 PPM, 0.1M NaOAc pH 4.6): 0.5 min
Sterilization Time (summary) [1, 3]: 15 min
Sterilization Time (summary) [1, 4]: 0.5 min
Sterilization Time ([1]; 300 PPM, pH 4.6 buffer with 10% serum): 0.5 min
Sterilization Time ([1]; 300 PPM, pH 4.6 buffer with 20% serum): 2.5 min
Sterilization Time ([1]; 300 PPM, pH 4.6 buffer with 35% serum): 15.0 min
Sterilization Time ([1]; 304.6 PPM, horse serum:pH 4.6 buffer 1:1): 15 min
Sterilization Time ([1]; 304.8 PPM, Triton X100 (10% solution):pH 4.6 buffer 1:1): 0.5 min
Sterilization Time ([1]; 316.6 PPM, 0.1M NaH2PO4 pH 7.0): 10.0 min
Sterilization Time ([1]; 606.9 PPM, pH 4.6 buffer with 33% serum): 0.5 min
Sterilization Time ([1]; 899.25 PPM, pH 4.6 buffer with 25% serum): 0.5 min
Sterilization Time (summary) [1, 5]: 0.5 min
Sterilization Time (summary) ([1]; 1000 PPM, 0.1M NaOAc pH 4.6): 0.5 min
Sterilization Time ([1]; 1001.2 PPM, horse serum:pH 4.6 buffer 1:1): 0.5 min
Sterilization Time ([1]; 1014.8 PPM, 0.1M NaOAc pH 4.6): 0.5 min
Sterilization Time ([1]; 1016.0 PPM, 0.1M NaH2PO4 pH 7.0): 2.5 min
Sterilization Time (Candida albican; 10 PPM): 15 min
Sterilization Time (Candida albican; 100 PPM): 15 min
Sterilization Time (Candida albican; 1000 PPM): 2.5 min

CC(C)(CCC(=O)O)N(Cl)Cl [(III), 4-Dichloroamino-4-methylvaleric acid]
Sterilization Time ([1]; 9.6 PPM, 0.1M NaOAc pH 4.6): 5.0 min
Sterilization Time ([1]; 9.7 PPM, 0.1M NaH2PO4 pH 7.0): 15 min
Sterilization Time [1, 2]: 10.0 min
Sterilization Time (summary) ([1]; 10 PPM, 0.1M NaOAc pH 4.6): 10.0 min
Sterilization Time (summary) ([1]; 100 PPM, 0.1M NaOAc pH 4.6): 0.5 min
Sterilization Time ([1]; 102.2 PPM, 0.1M NaOAc pH 4.6): 0.5 min
Sterilization Time ([1]; 103.5 PPM, 0.1M NaH2PO4 pH 7.0): 15 min
Sterilization Time (summary) [1, 3]: 10.0 min
Sterilization Time (summary) [1, 4]: 2.5 min
Sterilization Time [1, 6]: 2.5 min
Sterilization Time ([1]; 308.0 PPM, horse serum:pH 4.6 buffer 1:1): 10.0 min
Sterilization Time (summary) [1, 5]: 2.5 min
Sterilization Time (summary) ([1]; 1000 PPM, 0.1M NaOAc pH 4.6): 0.5 min
Sterilization Time ([1]; 1000.0 PPM, horse serum:pH 4.6 buffer 1:1): 2.5 min
Sterilization Time ([1]; 1007.7 PPM, 0.1M NaOAc pH 4.6): 0.5 min
Sterilization Time ([1]; 1012.3 PPM, 0.1M NaH2PO4 pH 7.0): 5.0 min
Sterilization Time (Candida albican; 10 PPM): 15 min
Sterilization Time (Candida albican; 100 PPM): 15 min
Sterilization Time (Candida albican; 1000 PPM): 0.5 min
